Laboratory results published in patent US20250205252A1, “7-KETOLITHOCHOLIC ACID FOR USE IN THE TREATMENT OF GUT DYSBIOSIS AND AS A PREBIOTIC” (NZP UK Limited, priority 2022, published 2025).
Read-outs that look alike come from different tables or passages of the source.

Experiments:
[1] = tested on: total bacteria (EUB-I-II-III); assay: 3-stage gut model, flow-FISH enumeration, total bacteria; settings: for total bacteria (EUB-I-II-III) after treatment: proximal region (V1), 400 mg/day, 512 h (SS2)
[2] = tested on: Bacteroides-Prevotella (BAC303); assay: 3-stage gut model, flow-FISH enumeration, Bacteroides-Prevotella; settings: 400 mg/day, 512 h; for Bacteroides-Prevotella (BAC303) population numbers after treatment: transverse region (V2)
Bifidobacterium species = assay: Batch culture fermentation of faecal slurry, flow-FISH enumeration (BIF); assay type: cell-based
Atopobium-Coriobacterium = assay: Batch culture fermentation of faecal slurry, flow-FISH enumeration (ATO); assay type: cell-based
[3] = tested on: Desulfovibrionales and Dessulfuromonadales; assay: Batch culture fermentation of faecal slurry, flow-FISH enumeration (DSV); assay type: cell-based
Total bacteria = assay: Batch culture fermentation of faecal slurry, flow-FISH enumeration (Total); assay type: cell-based; settings: 7-KLCA at 5 and 10 h, maltodextrin only at 5 h
[4] = tested on: SCFAs acetate, propionate, butyrate and lactate; assay type: cell-based; settings: preliminary results from one donor, FIG. 3
[5] = tested on: Clostridium histolyticum (Chis150); assay: 3-stage gut model, flow-FISH enumeration, Clostridium histolyticum; assay type: cell-based; settings: FIG. 6
[6] = tested on: bacterial metabolites lactate, acetate, butyrate, propionate and valerate; assay: 3-stage gut model, bacterial metabolite quantification by GC-MS; assay type: cell-based
Clostridium species = assay: 3-stage gut model, bacterial composition by 16s rRNA sequencing, Clostridium; assay type: cell-based; settings: after treatment; from 5.6%
[7] = assay type: in vivo, CD-1 mice
Description: The study design: • CTRL 1 Mice on normal diet for 60 days (5 mice) • CTRL 2 Mice on normal diet with 7KLCA at 10 mg/kg for 60 days (5mice) • CTRL 3 Mice on normal diet for 30 days, then 30 days on a high glucose diet (5 mice) • Treated Mice on normal diet for 30 days, then 30 days on a high glucose diet with 7KLCA throughout the study (5 mice)
Standard diet (10.6% fat J/J, 29.0% protein J/J and 60.4% carbohydrate J/J). High glucose diet (10.5% fat J/J, 16.4% protein J/J and 73.1% carbohydrate J/J). For all experimental group, free accesses to tap water The animals were kept in group of 5 animals/sex/group/cage in Plexiglas cages.
Experiments were carried out in 8-12-week-old male CD-1 mice according to the guidelines for the safe use and care of experimental animals in accordance with the Italian D.L. no. 116 of 27 Jan. 1992 and associated guidelines in the European Communities Council (86/609/ECC and 2010/63/UE) including the 3Rs concept (Kilkenny et al, 2010; McGrath et al, 2015). Animals were housed with ad libitum access to food and water and maintained on a 12-hour light/dark cycle. Experimental study groups were randomized and blinded. The animals in the control groups were handled in an identical manner to the treated group using the respective vehicle and the same volume of administration. Tested item formulation or vehicle was administered by oral gavage. The body weight was recorded once before the assignment to the experimental groups, on the first day of administration, and then weekly during the treatment.
The dose of 7-KLCA used in this study was 10 mg/kg/day. The vehicle used was DMSO in saline solution (NaCl 0.9%), 1/3 w/w. 7-KLCA was solubilised in DMSO (1 part w/w) and then resuspended in saline solution (3 parts w/w). This solution (200 μl/mouse) was prepared freshly every day and was kept under magnetic stirring during the daily administration.
The body weight was recorded once before the assignment to the experimental groups, on the first day of administration, and then weekly.
General clinical observations were performed at least once a day, at the same hour. The health condition of the animals was recorded.
After overnight fasting, blood of the animals was collected in serum separator tubes. FIGS. 10 and 13 show the change in body weight for the mice in the study.

Roseburia spp. (Rrec584) = assay: 3-stage gut model, flow-FISH enumeration, Roseburia; settings: across V1, V2 and V3; not statistically significant
[8] = tested on: Streptococcus spp. (Strp); assay: 3-stage gut model, flow-FISH enumeration, Streptococcus; settings: FIG. 6
bacterial metabolites = assay: 3-stage gut model, metabolite spectra analysis by 1H NMR; settings: V3 (distal colon)
[9] = tested on: Bifidobacterium spp. (Bif164); assay: 3-stage gut model, flow-FISH enumeration, Bifidobacterium
[10] = tested on: Desulfovibrionales (DSV687); assay: 3-stage gut model, flow-FISH enumeration, Desulfovibrionales; settings: FIG. 6
[11] = tested on: Eubacterium rectale (Erec482); assay: 3-stage gut model, flow-FISH enumeration, Eubacterium rectale; settings: across V1, V2 and V3; not statistically significant
[12] = tested on: Faecalibacterium prausnitzii (Fprau655); assay: 3-stage gut model, flow-FISH enumeration, Faecalibacterium prausnitzii
[13] = tested on: Faecalibacterium prausnitzii; assay: 3-stage gut model, bacterial composition by 16s rRNA sequencing, F. prausnitzii; settings: after treatment
Bifidobacterium spp. = assay: 3-stage gut model, bacterial composition by 16s rRNA sequencing, Bifidobacterium; settings: after treatment, V3 (distal colon); lower than the baseline
Eubacterium rectale = assay: 3-stage gut model, bacterial composition by 16s rRNA sequencing, Eubacterium rectale; settings: after treatment, proximal region of the colon; before 4%
Eubacterium eligens = assay: 3-stage gut model, bacterial composition by 16s rRNA sequencing, Eubacterium eligens; settings: after treatment, 2% before
Dialister pneumosintes = assay: 3-stage gut model, bacterial composition by 16s rRNA sequencing, Dialister pneumosintes; settings: after treatment, before 7%
[14] = tested on: Bacteroides xylanisolvens; assay: 3-stage gut model, bacterial composition by 16s rRNA sequencing, Bacteroides xylanisolvens; settings: after treatment, transverse region; 2% before
[15] = V1, V2 and V3, not statistically significant
[16] = HGD+7KLCA vs CTRL 3 (HGD), day 60
[17] = normal diet 60 days, CTRL 2 vs CTRL 1

For `C[C@H](CCC(=O)O)[C@H]1CC[C@H]2[C@@H]3[C@@H](O)C[C@@H]4C[C@H](O)CC[C@]4(C)[C@H]3CC[C@]12C` [UDCA, ursodeoxycholic acid, reference compound], the “total bacteria (EUB-I-II-III) after treatment” value [1] was 8.74±0.50 Log10 CFU/mL and the “Bacteroides-Prevotella (BAC303) population numbers after treatment” value [2] was 6.94±0.33 Log10 CFU/mL.

With `C[C@H](CCC(=O)O)[C@H]1CC[C@H]2[C@@H]3C(=O)C[C@@H]4C[C@H](O)CC[C@]4(C)[C@H]3CC[C@]12C` [7-KLCA, 3α-hydroxy-7-oxo-5β-cholanic acid] the Bifidobacterium numbers (Bifidobacterium species; at T5, vessels containing 7-KLCA and maltodextrin) was 7.45±0.16 Log10 CFU/mL, the Bifidobacterium numbers (Bifidobacterium species; at T10, vessels containing 7-KLCA and maltodextrin) was 7.55±0.21 Log10 CFU/mL and the “change in Bifidobacterium spp. (BIF) numbers, statistical significance” value (Bifidobacterium species; batch culture, 7-KLCA at 5 and 10 h) was “statistically significant increases”. The Bifidobacterium numbers (Bifidobacterium species; starting value (0 h), vessels containing 7-KLCA and maltodextrin) was 6.48±0.14 Log10 CFU/mL, the “increases in pathogenic species Atopobium, Coriobacterium” value (Atopobium-Coriobacterium) was “no increases” and the “increases in pathogenic species Desulfovibrionales and Desulfuromonadales” value [3] was “no increases”. The “change in total bacteria, statistical significance” value (Total bacteria) was “statistically significant increases”, the “SCFA production (metabolic profile)” value [4] was “promoting beneficial SCFA production” and the “increases in pathogenic Clostridium histolyticum” value [5] was “no statistically significant increases”. The “change in acetate concentration” value ([6]; GC-MS, after treatment vs SS1) was “no statistically significant changes”, the “change in butyrate concentration” value ([6]; GC-MS, after treatment vs SS1) was “no statistically significant changes” and the “change in valerate concentration” value ([6]; GC-MS, after treatment vs SS1) was “no statistically significant changes”. For the same compound, the “change in lactate concentration” value [6, 15] was “increases measured”, the “change in propionate concentration” value [6, 15] was “increases measured” and the “Clostridium species, of total bacterial species detected” value (Clostridium species) was 4.5%. The toxicity ([7]; 10 mg/kg, 60 days, oral gavage) was “no toxicity was observed”, the blood glucose levels ([7]; HGD+7KLCA vs CTRL 3 (HGD), after 60 days) was “significantly lower” and the HDL cholesterol levels [7, 16] was “slight, though not significant, increase”. The LDL cholesterol levels [7, 16] was “significantly reduced”, the total cholesterol levels [7, 16] was “significantly reduced” and the weight gain ([7]; after switch to HGD diet (days 30-60), 10 mg/kg/day, CTRL 3 gained significantly more) was “gained a similar amount of weight to the mice on the normal diet”. For the same compound, the weight gains ([7]; initial 30-day period on standard diet, treated group vs CTRL 3) was “no significant difference”, the insulin levels ([7]; normal diet 30 days followed by HGD diet 30 days) was “trend of increased insulin levels” and the weight gains ([7]; normal diet 60 days, 10 mg/kg oral gavage (CTRL 2) vs CTRL 1) was “no significant difference”. The blood glucose levels [7, 17] was “no significant difference”, the “levels of HDL cholesterol” value [7, 17] was “no significant difference” and the “levels of LDL cholesterol” value [7, 17] was “no significant difference”. The “levels of total cholesterol” value [7, 17] was “no significant difference”, the “change in Roseburia spp. between baseline and after treatment” value (Roseburia spp. (Rrec584)) was “increase” and the “increases in pathogenic Streptococcus” value [8] was “no statistically significant increases”. The “numbers of total bacteria after treatment versus Baseline” value ([1]; all three regions of the model, not significant) was “greater”, the “total bacteria (EUB-I-II-III) after treatment” value [1] was 9.35±0.16 Log10 CFU/mL and the “alanine in 1H NMR spectrum” value (bacterial metabolites; after treatment) was “detected”. The “acetate peaks in 1H NMR spectrum” value (bacterial metabolites; after vs before treatment) was “higher peaks”, the “bacterial metabolite iso-leucine in 1H NMR spectrum” value (bacterial metabolites; after vs before treatment) was “presence after treatment” and the “bacterial metabolite leucine in 1H NMR spectrum” value (bacterial metabolites; after vs before treatment) was “presence after treatment”. For the same compound, the “propionate peaks in 1H NMR spectrum” value (bacterial metabolites; after vs before treatment) was “higher peaks”, the “peaks of butyrate in 1H NMR spectrum” value (bacterial metabolites; after vs prior to treatment) was “greater” and the “increase in Bifidobacterium spp. (Bif164) between Baseline and after treatment, statistical significance” value ([9]; 3-stage gut model) was “no statistically significant increases”. For the same compound, the “observed change in Bifidobacterium spp. numbers after treatment” value ([9]; across all three stages (V1, 2 and 3)) was “observed increase”, the “Bifidobacterium spp. (Bif164) numbers after treatment” value ([9]; transverse region, Baseline Log 10 7.54±1.06 CFU/mL) was 8.16±0.13 Log 10 CFU/mL and the “increases in pathogenic Desulfovibrionales” value [10] was “no statistically significant increases”. For the same compound, the “change in Eubacterium rectale between baseline and after treatment” value [11] was “increase”, the “Bacteroides-Prevotella population numbers after treatment” value ([2]; distal region (V3)) was 7.69±0.15 Log10 CFU/mL and the “Bacteroides-Prevotella (BAC303) population numbers after treatment” value [2] was 8.47±0.24 Log10 CFU/mL. The “change in numbers of Faecalibacterium prausnitzii between baseline and after treatment” value ([12]; 7KLCA: V2 and V3) was “statistically significant increases”, the “numbers of Faecalibacterium prausnitzii after treatment” value ([12]; V2, baseline Log10 7.47±0.91 CFU/mL) was 8.81±0.09 Log10 CFU/mL and the “numbers of Faecalibacterium prausnitzii after treatment” value ([12]; V3, baseline Log10 6.95±0.97 CFU/mL) was 8.39±0.22 Log10 CFU/mL. The “abundance of F. prausnitzii” value ([13]; V3 (distal colon), from 0.6%) was 10%, the “abundance of Faecalibacterium prausnitzii” value ([13]; proximal region of the colon (V1), before 4%) was 17% and the “abundance of F. prausnitzii, of total bacterial composition” value ([13]; transverse region of the colon (V2)) was 18%. For the same compound, the “abundance of Bifidobacterium spp.” value (Bifidobacterium spp.) was 5%, the “abundance of Eubacterium rectale” value (Eubacterium rectale) was 18% and the “abundance of Eubacterium eligens” value (Eubacterium eligens; V1) was 2%. For the same compound, the “abundance of Eubacterium eligens” value (Eubacterium eligens; V2) was 5%, the “abundance of Eubacterium eligens” value (Eubacterium eligens; V3) was 2% and the “Dialister pneumosintes, percentage of total bacteria composition” value (Dialister pneumosintes; distal colon (V3)) was 3%. For the same compound, the “Dialister pneumosintes, percentage of total bacteria composition” value (Dialister pneumosintes; transverse colon (V2)) was 3% and the “abundance of Bacteroides xylanisolvens” value [14] was 9%.
